The molecule `COc1ccc(CCCNc2c(C)c(C)c3c(c2C)C(c2ccc(C(C)C)cc2)C(C)(C)O3)cc1` (stereo unspecified) came in with a melting point of 62 to 65 °C.

For `CCOC(=O)c1c(O)c2ccccc2n(Cc2ccc(F)cc2)c1=O`, the melting point lay in the range of 116 to 120 °C.

For `CCC1(c2ccccc2)Cc2cc(OCC(=O)O)c(Cl)c(Cl)c2C1=O` (stereo unspecified), the melting point fell in the range of 187 to 189 °C.

`CCCc1c(OCCCOc2ccc3ccccc3c2)ccc2c1OC(CCC(=O)O)(CCC(=O)O)CC2=O`: the melting point stood at 158 °C.

Molecule `NC(=O)c1ccc(F)c2c1C[C@@H](N(CCCc1c[nH]c3c(F)cc(F)cc13)CC1CC1)CO2` yielded a melting point of 147 to 151 °C.

On to `C=CCSCCON=C(C(=O)OCC)c1csc(NC=O)n1`, for which the melting point was 62 to 64 °C.

In turn, `CC(=O)NCC1CC1c1cccc2nc(C)cn12` (stereo unspecified) yielded a melting point of 170 to 171 °C.

For the molecule `O=C(NN1CCNC1=O)c1c[nH]c2cc(O)c(O)cc2c1=O`, the melting point was > 300 °C.

As for `Cc1oc(-c2ccccc2)nc1COc1ccc(OCc2oc(-c3ccccc3)nc2/C=C/C(=O)O)cc1`, the melting point fell in the range of 209 to 210 °C.

In the case of `Cc1cc2n[nH]c(=O)n2nc1-c1cccc([N+](=O)[O-])c1`, the melting point was > 300 °C.

The molecule `CCC(=O)C(CCCOc1ccc(OCCCc2c(CC)n[nH]c2CC)cc1)C(=O)CC` returned a melting point of 135 to 136 °C.

In turn, `Cc1ccc(N(C)S(=O)(=O)c2cccs2)c2[nH]c(-c3ncc(CCl)s3)cc12` had a melting point of 194 to 195 °C.

With `CCSc1cc2c(cc1SCC)C(=O)c1c(c(Cl)c3cc(SCC)c(SCC)cc3c1Cl)C2=O`, the melting point was > 260 °C.

For the molecule `CCCc1ccc(C(=O)NCCc2cccs2)cc1`, the melting point is 97 to 99 °C.

Take `Nc1ccc(-c2cccc(C(F)(F)F)c2)nn1`: the melting point was 138 to 139 °C.

`COc1ccc(C(=O)Nc2ccccc2)cc1NCc1ccc(C#N)cc1`: the melting point is 130 to 133 °C.

For `CCCn1ncc2c(=O)[nH]c(-c3cc(Br)ccc3OCC)nc21`, the melting point is 172 to 173 °C.

In the case of `O=C(NCCCc1ccncc1)N(CCCCC(F)(F)F)CCC12CC3CC(CC(C3)C1)C2`, the melting point lay within 117 to 119 °C.

Take `CC(C)(C)P(=O)(O)OCCCN`: the melting point lay within 253 to 255 °C.

In turn, `CNC(=O)ON=C1SCC(=O)N(C)C1C` (stereo unspecified) displayed a melting point of 161 to 163 °C.

Regarding `Cc1cn(C2CCCCC2)c(=O)nc1N`, the melting point is 205 to 207 °C.

As for `O=C(Nc1nc(-c2ccco2)c(C(=O)c2ccnc(N3CCOCC3)c2)s1)c1ccncc1`, the melting point lay in the range of 270 to 273 °C.

As to `COC(C)(C)CNC(=O)c1cccc(-c2cccc3cc(Cc4cc(F)cc(Cl)c4)sc23)c1`, the melting point is 89 to 90 °C.

`O=C(O)Cc1ccccc1OCCCCc1cc(-c2ccc(C(F)(F)F)cc2)no1` had a melting point of 122 to 123 °C.

Consider `CCCC1CCC(C2CCC(C3CCC(C(=O)OC)C(=O)C3)CC2)CC1` (stereo unspecified), for which the melting point turned out to be 154 °C.

The molecule `c1ccc(COCC2c3ccccc3-c3ccccc32)cc1` had a melting point of 69.5 to 70 °C.

Consider `Cc1nc(CCOc2ccc([N+](=O)[O-])cc2)c(C)o1`, for which the melting point is 97 to 98 °C.

In turn, `CSc1ccc(-c2cnn(C(C)(C)C)c(=O)c2OCCC(C)C)cc1` displayed a melting point of 153 to 155 °C.

`N#Cc1ccc(-c2cccc(OC3SCC(O)C(O)C3O)c2)cn1` (stereo unspecified) showed a melting point of 179 °C.

`CNC1(c2ccccc2Cl)C(=O)Nc2c(F)cc(Cl)cc21` (stereo unspecified) showed a melting point of 219 °C.

Regarding `Cc1nc(N2CCc3ccccc3CC2)c(C#N)c(=O)n1CC1CC1`, the melting point fell in the range of 119 to 122 °C.

Consider `CCC1(c2ccccc2)OC(C(=O)O)Oc2ccc(Cl)cc21` (stereo unspecified), for which the melting point was 85 °C.

With `COC(=O)C(=C(C)NCC(O)CO)c1ncc([N+](=O)[O-])cc1[N+](=O)[O-]` (stereo unspecified), the melting point lay in the range of 128 to 129 °C.

In turn, `CCOC(=O)c1cc(-c2ccc(Cl)cc2)n(-c2ccc(OC)cc2)n1` came in with a melting point of 107 to 108 °C.

`CC(=S)NCC1CN(c2ccc(N3CCC(=CC#N)C(F)C3)c(F)c2)C(=O)O1` (stereo unspecified): the melting point lay in the range of 137 to 138 °C.

Regarding `Cc1ccc(S(=O)(=O)NC(=O)OCCc2ccc(-n3c(CCC(=O)N4CCCC4)nc4cc(C(F)(F)F)c(Cl)cc43)cc2)cc1`, the melting point is 98 to 105 °C.

`O=c1[nH]nc(-c2cccc(Cl)c2)c2ncccc12` returned a melting point of 268 to 269 °C.

`CC(C)Cn1cnc2c(N)nc3ccc(CCCCc4ccccc4)cc3c21`: the melting point lay within 176 to 177 °C.

Turning to `CN(C)c1onc2c1c(=O)n(C)c(=O)n2C`, the melting point was in the range of 188 to 190 °C.

The molecule `O=C(Nc1cccc(C2CN3CCSC3=N2)c1)c1ccc(Cl)nc1` (stereo unspecified) gave a melting point of 135 to 138 °C.

On to `O=C(CCS)NCCS`, for which the melting point came out at 40 °C.

`COc1ccc(C(=O)Nc2ccccc2)cc1NCc1cccs1` displayed a melting point of 195 to 197 °C.

With `Cn1cccc1CCNCC(O)COc1cccc2[nH]ccc12` (stereo unspecified), the melting point lay in the range of 105 to 106 °C.

The molecule `CC(C)CCCc1c(-c2ccc(S(C)(=O)=O)cc2)cnn(-c2ccc(F)cc2)c1=O` registered a melting point of 112 to 115 °C.

Turning to `COc1ccc2nccc(CCC[C@@H]3CCN(CC#Cc4ccccc4)C[C@@H]3C(=O)O)c2c1`, the melting point amounted to 166 °C.

In turn, `CC(=O)Nc1nc2ccc(O)cc2n1S(=O)(=O)N(C)C` yielded a melting point of 175 to 176 °C.

With `CCC(=O)Nc1cc(C2=NNC(=O)CC2C)ccc1N1CCOCC1` (stereo unspecified), the melting point lay in the range of 193 to 196 °C.

In turn, `CCOC(=O)c1cccc(-c2nc(-c3ccc(OCC)cc3)cs2)c1` returned a melting point of 108 to 110 °C.

In the case of `O=S(=O)(Nc1onc(C(F)(F)F)c1Br)c1ccccc1`, the melting point was 104 to 105 °C.

As to `CCCCN(C1CCCOc2c(C)cc(Cl)cc21)S(=O)(=O)CC` (stereo unspecified), the melting point is 83 to 87 °C.

Consider `CCCCc1cc(C(=O)Nc2nnn[nH]2)nc(-c2ccc(N)cc2)c1`, for which the melting point is > 300 °C.

In turn, `O=C1CCC2(CC3CCC2CC3)C(=O)N1` (stereo unspecified) gave a melting point of 183 to 184 °C.

In turn, `COCCOCCN1C(=O)C2(COc3cc4c(cc32)OCCO4)c2c(OC)cc(OC)cc21` (stereo unspecified) registered a melting point of 158 to 160 °C.

In the case of `CCc1cc2c(cc1O)CCC1C2CCC2(C)C(=CCOC)CCC12` (stereo unspecified), the melting point lay in the range of 133 to 134 °C.

`CCCCNC(=O)C=C(C)C=CC=C(C)C=Cc1c(C)cc(OC)c(C)c1C` registered a melting point of 178 °C.

Consider `CC(=O)CC(=O)OCCCN1C(=O)c2ccccc2C1=O`, for which the melting point was 67 to 71 °C.

`COC(=O)C(NC(C)=O)NC(=O)c1cc(Cl)cc(Cl)c1` (stereo unspecified) registered a melting point of 235 to 237 °C.

Molecule `CCCCCc1ccc(CCc2ccc(-c3ccc(OC(F)F)cc3)cc2)cc1` had a melting point of 121 °C.

The molecule `CS(=O)C1C(=O)Nc2ccc(C(F)(F)F)cc21` (stereo unspecified) returned a melting point of 141 to 142 °C.

`CCOC(=O)c1cc([N+](=O)[O-])ccc1O` gave a melting point of 97 °C.

In turn, `CCOC(=O)CSc1nc(=O)[nH]cc1F` gave a melting point of 156 °C.

On to `Cc1nc(-n2ccc(O)cc2=O)sc1C(=O)NCc1cccc(F)c1`, for which the melting point was in the range of 250 to 252 °C.

Turning to `CN(Cc1ccccc1)C1c2ccccc2CCCC1O` (stereo unspecified), the melting point stood at 70 °C.

In turn, `Cc1nc(O)sc1C(=O)CBr` showed a melting point of 162 °C.

As to `CCn1c(=O)c2c(-c3nc(C4CC4)no3)ncn2c2cccnc21`, the melting point is 262 to 263 °C.

`CCc1n[nH]c(CC)c1CCCCCCOc1ccccc1` yielded a melting point of 119 to 121 °C.

`C=CCn1c(CCl)nc(C(C)C)c1Sc1cccc(Cl)c1` yielded a melting point of 84 to 86 °C.

On to `COC(Nc1ccccc1)(OC)c1ccnc(C(=O)c2ccccc2)c1`, for which the melting point lay in the range of 123 to 124 °C.

Turning to `O=c1[nH]c(=O)n(C2OC(CO)C(O)C2O)cc1C(Cl)=CI` (stereo unspecified), the melting point was 109 to 111 °C.

`Cc1ccc(-c2nc3c(C)cccc3c(=O)[nH]2)c(Cl)c1` registered a melting point of 234 °C.

The molecule `O=C(O)c1ccc2c(c1)S(=O)(=O)c1ccccc1C=C2` came in with a melting point of 268 to 270 °C.

Consider `O=C(O)C(CC1CCCC1)c1ccc(-c2ccncc2)cc1` (stereo unspecified), for which the melting point is 118 to 121 °C.

`O=S(=O)(c1cccc(-c2cc(-c3nc(-c4ccc(C(F)(F)F)cc4)cc(C(F)(F)F)n3)ccn2)c1)N1CCCC1` yielded a melting point of 184 °C.

As to `CN1CCN(c2ccccc2C=CC(=O)NCc2ccc(Cl)cc2)CC1`, the melting point was 193 to 194 °C.

Molecule `Cc1nsc(OCC(Cl)(Cl)Cl)c1[N+](=O)[O-]` yielded a melting point of 60 to 61 °C.

`O=C(N[C@H]1C(=O)N[C@@H]1CCO)OCc1ccccc1` returned a melting point of 120 to 121 °C.

`COC1(c2cc(F)cc(OCc3nc(-c4ccc(F)cc4)c(-c4ccc(S(N)(=O)=O)cc4)o3)c2)CCOCC1` came in with a melting point of 70 to 72 °C.

`CCn1cc(C(=O)O)c(=O)c2cc(F)c(N3CCCC(O)C3)c(F)c21` (stereo unspecified) returned a melting point of 232 to 234 °C.

For the molecule `NC(=O)NCc1cc(Cl)cc(-c2csc(N=C(N)N)n2)n1`, the melting point is > 300 °C.

With `COc1ccc(Nc2nc(O)nc(NC3CCCCCC3)n2)cc1Cl`, the melting point was > 310 °C.

Regarding `COc1cc(C)nc(NC(=O)NS(=O)(=O)Cc2ccccc2-c2nnc(SC)o2)n1`, the melting point lay in the range of 194 to 196 °C.

Turning to `COCc1cc2c3ccccc3n(C)c(=O)n2n1`, the melting point is 98 to 100 °C.

In turn, `CCN1C(=O)Cc2cc3ccccc3cc2S1(=O)=O` returned a melting point of 170 to 171 °C.

The molecule `NCC(=O)N(C(=O)C(O)c1ccccc1)c1ccccc1` (stereo unspecified) registered a melting point of 148 to 151 °C.

As for `O=C1c2ccccc2CN1c1ccc(CCN2CCN(c3nsc4ccccc34)CC2)cc1`, the melting point turned out to be 176 °C.

Turning to `CCOC(=O)CCN1C(=O)C(NC(=O)OCc2ccccc2)N=C(c2ccccc2)c2ccccc21` (stereo unspecified), the melting point lay within 57 to 59 °C.

Regarding `CSc1nnc(-c2cc3c(Oc4ccc(Cl)cc4)cncc3s2)o1`, the melting point is 158 to 160 °C.

Molecule `Nc1nnc(SCC(=O)C23CC4CC(CC(C4)C2)C3)s1` displayed a melting point of 198 to 199 °C.

With `CN1C(=O)C(=O)C(c2ccc(Cl)cc2)Sc2ccccc21` (stereo unspecified), the melting point fell in the range of 124 to 126 °C.

As to `CCc1cn2ccccc2c1S(=O)(=O)c1ccc(OS(=O)(=O)c2ccc(C)cc2)c(C)c1`, the melting point worked out at 164 °C.

Take `COc1c(F)c(C)c(F)c(OC)c1CO`: the melting point lay within 80 to 81 °C.

As usually defined, the melting point is the temperature of the solid-liquid transition.
